Test results reported in patent publication US10233184B2, “7-substituted sulfonimidoylpurinone compounds and derivatives for the treatment and prophylaxis of virus infection” (Hoffmann-La Roche Inc., priority 2016, dated 2019).

Target: T1, human TLR7 (Homo sapiens, UniProt Q9NYK1)
T1 sequence (Q9NYK1 27-1049): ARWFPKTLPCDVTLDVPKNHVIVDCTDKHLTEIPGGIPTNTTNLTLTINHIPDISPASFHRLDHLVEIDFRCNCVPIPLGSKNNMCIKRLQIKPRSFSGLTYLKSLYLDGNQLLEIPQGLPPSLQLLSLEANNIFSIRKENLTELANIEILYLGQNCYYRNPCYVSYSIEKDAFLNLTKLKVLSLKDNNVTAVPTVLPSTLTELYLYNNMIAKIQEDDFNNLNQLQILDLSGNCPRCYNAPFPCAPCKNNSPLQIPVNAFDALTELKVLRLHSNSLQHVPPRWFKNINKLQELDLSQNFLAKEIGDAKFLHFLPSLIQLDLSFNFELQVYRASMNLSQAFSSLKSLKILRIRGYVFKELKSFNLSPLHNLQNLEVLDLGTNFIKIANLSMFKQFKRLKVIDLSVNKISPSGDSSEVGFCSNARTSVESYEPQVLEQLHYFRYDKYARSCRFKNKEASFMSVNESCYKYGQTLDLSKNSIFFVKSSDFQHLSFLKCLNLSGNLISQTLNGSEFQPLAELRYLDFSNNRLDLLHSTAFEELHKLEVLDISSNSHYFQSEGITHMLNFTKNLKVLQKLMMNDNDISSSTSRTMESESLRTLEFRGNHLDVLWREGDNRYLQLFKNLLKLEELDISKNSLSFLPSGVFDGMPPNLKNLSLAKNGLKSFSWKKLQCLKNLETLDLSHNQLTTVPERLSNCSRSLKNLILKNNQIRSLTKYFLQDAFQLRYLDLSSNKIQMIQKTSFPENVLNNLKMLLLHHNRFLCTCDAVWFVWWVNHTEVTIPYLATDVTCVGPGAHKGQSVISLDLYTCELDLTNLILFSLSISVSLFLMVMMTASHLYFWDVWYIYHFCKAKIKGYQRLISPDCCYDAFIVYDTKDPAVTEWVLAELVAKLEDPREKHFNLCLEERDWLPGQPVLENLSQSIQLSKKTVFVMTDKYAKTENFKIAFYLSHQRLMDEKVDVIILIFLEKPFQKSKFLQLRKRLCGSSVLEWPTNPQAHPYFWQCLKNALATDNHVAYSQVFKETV
Experiment: HEK293-Blue-hTLR-7 cells assay (SEAP reporter)
Assay type: cell-based
Settings: for Ratio (EC50(prodrug)/EC50(active form)): EC50 of prodrug over EC50 of corresponding active form; for EC50: HEK293-Blue-hTLR-7 cells, SEAP reporter, 20 hrs, prodrug, read-out: HEK293-hTLR-7 EC50 (Prodrug)
Outline: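 HEK293-Blue-hTLR7 cells with NF-κB/AP-1-driven SEAP reporter exposed to serially diluted compound (1% DMSO) for 20 hrs at 37° C. Supernatant SEAP measured with QUANTI-Blue after 2 hrs at 37° C, absorbance 620~655 nm; agonism expressed as EC50.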

| SMILES | Ratio (EC50(prodrug)/EC50(active form)) | EC50 [µM] |
| --- | --- | --- |
| CCCN(C)C(=O)n1c(=O)n(Cc2ccc(Cl)cc2)c2nc([S@](=N)(=O)CC)nc(N)c21 [Example 41-A, 6-Amino-9-[(4-chlorophenyl)methyl]-2-[S(R)-ethylsulfonimidoyl]-N-methyl-8-oxo-N-propyl-purine-7-carboxamide] | 518.8 | 44.1 |
| CCCN(C)C(=O)n1c(=O)n(Cc2ccc(Cl)cc2)c2nc([S@@](=N)(=O)CC)nc(N)c21 [Example 41-B, 6-Amino-9-[(4-chlorophenyl)methyl]-2-[S(S)-ethylsulfonimidoyl]-N-methyl-8-oxo-N-propyl-purine-7-carboxamide] | 452.1 | 32.1 |
| CCN(C)C(=O)n1c(=O)n(Cc2ccc(Cl)cc2)c2nc([S@@](=N)(=O)CC)nc(N)c21 [Example 42-A, 6-Amino-9-[(4-chlorophenyl)methyl]-N-ethyl-2[S(S)-ethylsulfonimidoyl]-N-methyl-8-oxo-purine-7-carboxamide] | 570.4 | 40.5 |
| CCCN(C)C(=O)n1c(=O)n(Cc2ccc(C)cc2)c2nc([S@](=N)(=O)CC)nc(N)c21 [Example 43-A, 6-Amino-2-[S(R)-ethylsulfonimidoyl]-N-methyl-8-oxo-N-propyl-9-(p-tolylmethyl)purine-7-carboxamide] | 1000 | 110 |
